The results in this text go back to patent publication US20140065075A1, “TARGETED CONTRAST AGENTS AND USES THEREOF” (RF THERAPEUTICS INC., priority 2011, published 2014).

In this test the test system is necrotic tissue (infarcted myocardial tissue). In words: MRI analysis of contrast agents in vivo: rats, left main coronary artery ligation and reperfusion, MR images compared with tissue histology. Also on record: species or system rat. As for the experimental part:
Contrast agents were prepared following the methods outlined in Examples 1-11 above. Rats (250-300 g—obtained from where?) were used for the following studies detailed below.
Rats were anesthetized by administration of isoflurane (5% induction, 1-2% maintenance) and positioned in an animal holder. The blood pressure and heart rate of the rats were monitored prior to ligation to provide a baseline condition. The rats were subjected to ligation of the left main coronary artery under aseptic conditions. During the ligation, the left thoracic cage of the rat, at the 4th intercostal space was opened to expose the heart muscle. The pericardial sac was cut open and the left main coronary artery was ligated at 2-4 mm from its origin using 6-0 prolene for a period of 2 h. The ligature was then removed to allow for the reperfusion of the infarcted myocardial tissue. Following the ligation procedure, bupivacaine and Cicatrin were applied to the incision. […]
The contrast agent was the intravenously injected 4 hours following the start of myocardial reperfusion. The blood pressure and heart rate were monitored during the ligation procedure and the administration of the contrast agent. The body temperature of the rats was monitored with a rectal probe and maintained at the physiological level by the circulating warm water. […]

Each structure is given as a SMILES string.

In the case of `O=C([O-])CN(CCN(CCN(CC(=O)[O-])CC(=O)Nc1ccc(NC(=O)CN(CCN(CCN(CC(=O)[O-])CC(=O)O)CC(=O)O)CC(=O)[O-])cc1)CC(=O)O)CC(=O)[O-].[Na+].[Na+].[Na+].[Na+].[Na+]` [RF 1002], under “5 mg/kg and 40 mg/kg intravenous 4 hours after start of reperfusion, 7 Tesla MRI about 4 to 16 hours after administration”, the “contrast enhancement in MR images versus necrotic tissue visible by staining of the tissue sample (binding to necrotic tissue)” value is given as “necrotic tissue visible by staining of the tissue sample corresponds to the same region exhibiting contrast enhancement in the MR images”. Moreover, where the note is “40 mg/kg versus 5 mg/kg intravenous”, the “visibility of contrast enhancement on the MRI, dose comparison” value is “more defined at the higher dosage of contrast agent”.
